Experiments:
[1] = system: NFκB activity in U2OS cells carrying expressed Cx43; assay: NF-kB reporter gene assay (intracellular luciferase activity) after IL-1β stimulation; type: cell-based
Source text: As schematically shown in FIG. 6, an IKK complex is activated by IL-1β stimulation or the like and thereby phosphorylates IκB. The phosphorylated IκB is further polyubiquitinated and degraded by a pathway in a proteasome system. As a result, the suppressive effect of IκB on NFκB (p50+p65) disappears. The nuclear-imported NFκB increases the transcriptional activity of a gene of interest. A NEMO Binding Domain ((SEQ ID NO:3); hereinafter, NBD) is known to be a sequence present in the C-terminus of IKKβ, one component in the IKK complex, and be necessary for binding with IKKγ (NEMO). The solubilized NBD oligopeptide originally suppresses normal IKK functions through its competitive inhibition of the binding of IKKβ with NEMO and thereby suppresses the nuclear import of NFκB and the transcription of a gene of interest. […] Thus, in this example, a liposome having connexon consisting of Cx43 was used to attempt the administration of the NBD peptide into cells via a gap junction.
Specifically, the U2OS cells used in Example 2 was initially cultured until 80 to 90% density in a 10-cm culture dish, on which a liposome containing the NBD peptide was then allowed to act for 12 hours. In this example, the liposome used was constructed in the same way as in Example 1 except that a solution used contained 50 μL of the NBD peptide. […]

[2] = system: COX-2 mRNA in U2OS cells carrying expressed Cx43; assay: COX-2 expression by RT-PCR after IL-1 stimulation; type: cell-based
Procedure: Specifically, the U2OS cells used in Example 2 was initially cultured until 80 to 90% density in a 10-cm culture dish, on which a liposome containing the NBD peptide was then allowed to act for 12 hours. In this example, the liposome used was constructed in the same way as in Example 1 except that a solution used contained 50 μL of the NBD peptide.
In FIG. 8, “Cx-U2OS” denotes a result obtained using a liposome having connexon, and “U2OS” denotes a result obtained using a liposome having no connexon. […] Moreover, the suppression of COX-2 expression was not confirmed in the administration of NBD alone, the administration of NBD using the liposome having no Cx43 expression, administration after pretreatment with GA, and the administration of mutant NBD. Furthermore, the NBD effect was not confirmed on U2OS having no Cx43 expression.

| Compound | effect of pretreatment with gap junction inhibitor on the NBD effect on NFκB activity ([1]; pretreatment before NBD administration using Cx43-expressing liposome) | suppression of COX-2 expression by NBD administration after pretreatment with GA ([2]; pretreatment with GA) | suppression of IL-1β stimulation-induced rises in NFκB activity ([1]; liposome for 12 hours, then IL-1β for 24 hours, cells carrying expressed Cx43) | suppression of IL-1 stimulation-induced rises in COX-2 expression ([2]; cells carrying expressed Cx43) |
| --- | --- | --- | --- | --- |
| CC1(C)[C@@H](O)CC[C@]2(C)[C@H]3C(=O)C=C4[C@@H]5C[C@@](C)(C(=O)O)CC[C@]5(C)CC[C@@]4(C)[C@]3(C)CC[C@@H]12 [18β-glycyrrhetinic acid] | suppressed the NBD effect | not confirmed |  |  |
| NBD peptide: NEMO Binding Domain oligopeptide (SEQ ID NO:3), administered without liposome (TALDWSWLQTE; listed as Homo sapiens) |  |  | not confirmed | not confirmed |
